Measured values taken from patent EP0450097B1, “BENZOHETEROCYCLIC COMPOUNDS” (OTSUKA PHARMACEUTICAL CO., LTD., priority 1989, dated 1991).

target: T1, V₂ receptor (Rattus norvegicus, UniProt Q00788); assay: V₂ receptor binding assay ([³H]-Arg-vasopressin, rat kidney plasma membrane preparations); details: 4°C for 3 hours
T1 construct: Using rat kidney plasma membrane preparations; from tissue; host or cells: rat kidney plasma membranes
Experimental: Using rat kidney plasma membrane preparations prepared according to O. Hechter's method [cf: J. Bio. […] After incubation, the mixture is filtered using the glass filter (GF/F) so as to separate the membrane preparation combined with vasopressin and then washed twice with the buffer (5 ml). This glass filter is taken out and mixed with liquid scintillation cocktail. The amount of [³H]-vasopressin combined with the membrane is measured by liquid scintillation counter and the rate of the inhibitory effect of the test compound is estimated according to the following equation. Rate of the inhibitory effect (%) = 100 -(C1 - B1)/(C0 - B1)X 100 [formula] C¹: The amount of [³H]-vasopressin combined with the membrane in the presence of the test compound (in prescribed amount). C⁰: The amount of [³H)-vasopressin combined with the membrane in the absence of the test compound. B¹: The amount of [³H]-vasopressin combined with the membrane in the presence of the excess amount of vasopressin (10⁻⁶ M).
The results are expressed as IC₅₀ values, which is the concentration of the test compound required to achieve the inhibitory effect in the rate of 50 %.

T1 sequence (Q00788 whole entry): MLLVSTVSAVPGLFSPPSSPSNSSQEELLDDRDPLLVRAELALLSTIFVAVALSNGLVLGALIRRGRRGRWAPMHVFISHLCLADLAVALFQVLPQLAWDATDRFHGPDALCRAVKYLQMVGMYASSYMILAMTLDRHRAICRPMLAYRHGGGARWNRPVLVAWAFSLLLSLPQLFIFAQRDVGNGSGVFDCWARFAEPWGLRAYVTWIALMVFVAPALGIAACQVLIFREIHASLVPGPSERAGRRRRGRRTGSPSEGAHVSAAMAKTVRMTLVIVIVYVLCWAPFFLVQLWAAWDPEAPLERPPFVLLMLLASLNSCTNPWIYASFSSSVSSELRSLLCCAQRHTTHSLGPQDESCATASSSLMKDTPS

IC50 [nM]	Structure (SMILES)
150	COc1cc(NC(=O)c2ccccc2Cl)ccc1C(=O)N1CCCC(N(C)C)c2ccccc21 (centres unmarked) [compound 177]
34	CN(C)C1CCCN(C(=O)c2ccc(NC(=O)c3ccccc3Cl)cc2)c2ccccc21 (centres unmarked) [compound 180]
5	CNC1CCCN(C(=O)c2ccc(NC(=O)c3ccccc3C)cc2Cl)c2ccccc21 (centres unmarked) [compound 182]
260	COc1cc(NC(=O)c2ccccc2C)ccc1C(=O)N1CCCC(N(C)C)c2ccccc21 (centres unmarked) [compound 183]
23	CN(C)C1CCCN(C(=O)c2ccc(NC(=O)c3ccccc3Cl)cc2Cl)c2ccccc21 (centres unmarked) [compound 184]
87	CN(C)C1CCCN(C(=O)c2ccc(NC(=O)c3ccccc3Cl)c(OC(=O)c3ccccc3Cl)c2)c2ccccc21 (centres unmarked) [compound 189]
82	C=CCN(C)C1CCCN(C(=O)c2ccc(NC(=O)c3ccccc3C)cc2Cl)c2ccccc21 (centres unmarked) [compound 190]
9	Cc1ccccc1C(=O)Nc1ccc(C(=O)N2CCCC(OC(N)=O)c3ccccc32)cc1 (centres unmarked) [compound 191]
990	Cc1ccccc1C(=O)Nc1ccc(C(=O)N2CCCC(N(C)C)c3ccccc32)c(N(C)C)c1 (centres unmarked) [compound 197]
4	Cc1ccccc1C(=O)Nc1ccc(C(=O)N2CCCC(O)c3ccccc32)c(Cl)c1 (centres unmarked) [compound 210]
35	CN(C)C1CCCN(C(=O)c2ccc(NC(=O)c3ccccc3F)cc2)c2ccccc21 (centres unmarked) [compound 212]
33	CN(C)C1CCCN(C(=O)c2ccc(NC(=O)c3ccc(F)cc3F)cc2)c2ccccc21 (centres unmarked) [compound 213]
22	Cc1ccccc1C(=O)Nc1ccc(C(=O)N2CCCC(N(C)C)c3ccccc32)c(C)c1 (centres unmarked) [compound 218]
23	Cc1cc(NC(=O)c2ccccc2Cl)ccc1C(=O)N1CCCC(N(C)C)c2ccccc21 (centres unmarked) [compound 219]
26	Cc1cc(NC(=O)c2ccc(Cl)cc2Cl)ccc1C(=O)N1CCCC(N(C)C)c2ccccc21 (centres unmarked) [compound 220]
22	CN(C)C1CCCN(C(=O)c2ccc(NC(=O)c3ccccc3Cl)cc2F)c2ccccc21 (centres unmarked) [compound 223]

IC50 [nM]	Structure (SMILES)
19	Cc1ccccc1C(=O)Nc1ccc(C(=O)N2CCCC(N(C)C)c3ccccc32)c(F)c1 (centres unmarked) [compound 226]
29	Cc1cc(C(=O)N2CCCC(N(C)C)c3ccccc32)ccc1NC(=O)c1ccc(Cl)cc1Cl (centres unmarked) [compound 227]
29	CCN(C)C1CCCN(C(=O)c2ccc(NC(=O)c3ccccc3C)cc2)c2ccccc21 (centres unmarked) [compound 228]
29	CCNC1CCCN(C(=O)c2ccc(NC(=O)c3ccccc3C)cc2)c2ccccc21 (centres unmarked) [compound 229]
20	CN(C)C1CCCN(C(=O)c2ccc(NC(=O)c3cc(F)cc(F)c3)cc2)c2ccccc21 (centres unmarked) [compound 230]
20	Cc1ccccc1C(=O)Nc1ccc(C(=O)N2CCCC(N(C)C)c3ccccc32)cc1F (centres unmarked) [compound 232]
170	CN(C)C1CCCN(C(=O)c2ccc(NC(=O)c3ccccc3OCC(N)=O)cc2)c2ccccc21 (centres unmarked) [compound 239]
60	COc1cc(C(=O)N2CCCC(N(C)C)c3ccccc32)ccc1NC(=O)c1ccc(Cl)cc1Cl (centres unmarked) [compound 248]
16	Cc1ccccc1C(=O)Nc1ccc(C(=O)N2CCC(C)C(N(C)C)c3ccccc32)cc1 (centres unmarked) [compound 254]
200	Cc1ccccc1C(=O)Nc1ccc(C(=O)N2CCCC(N(C)S(C)(=O)=O)c3ccccc32)cc1 (centres unmarked) [compound 258]
29	CCOC(=O)CN(C)C1CCCN(C(=O)c2ccc(NC(=O)c3ccccc3C)cc2)c2ccccc21 (centres unmarked) [compound 262]
30	Cc1ccccc1C(=O)Nc1ccc(C(=O)N2CCCC(N(C)CC(O)CO)c3ccccc32)cc1 (centres unmarked) [compound 264]
25	Cc1ccccc1C(=O)Nc1ccc(C(=O)N2CCCC(N(C)CC#N)c3ccccc32)cc1 (centres unmarked) [compound 265]
18	Cc1ccccc1C(=O)Nc1ccc(C(=O)N2CCCC(CN(C)C)c3ccccc32)cc1 (centres unmarked) [compound 268]
380	Cc1ccccc1C(=O)Nc1ccc(C(=O)N2CCCC(NN)c3ccccc32)cc1 (centres unmarked) [compound 282]

More lines, now with the values behind:

Structure (SMILES)	IC50 [nM]
CNC1CCCN(C(=O)c2ccc(NC(=O)c3ccccc3Cl)cc2)c2ccccc21 (centres unmarked) [compound 181]	38
O=C(Nc1ccc(C(=O)N2CCCC(NC3CC3)c3ccccc32)c(Cl)c1)c1ccc(Cl)cc1Cl (centres unmarked) [compound 186]	30
CNC1CCCN(C(=O)c2ccc(NC(=O)c3ccccc3C(F)(F)F)cc2Cl)c2ccccc21 (centres unmarked) [compound 198]	40
O=C(Nc1ccc(C(=O)N2CCCC(NC3CC3)c3ccccc32)c(Cl)c1)c1ccccc1Cl (centres unmarked) [compound 200]	24
C=CCNC1CCCN(C(=O)c2ccc(NC(=O)c3ccccc3C)cc2Cl)c2ccccc21 (centres unmarked) [compound 201]	23
O=C(Nc1ccc(C(=O)N2CCCC(N3CCCCC3)c3ccccc32)cc1)c1ccccc1Cl (centres unmarked) [compound 202]	140
O=C(Nc1ccc(C(=O)N2CCCC(N3CCN(Cc4ccccc4)CC3)c3ccccc32)cc1)c1ccccc1Cl (centres unmarked) [compound 203]	70
O=C(Nc1ccc(C(=O)N2CCCC(N3CCCC3)c3ccccc32)cc1)c1ccccc1Cl (centres unmarked) [compound 204]	110
CC(=O)N1CCN(C2CCCN(C(=O)c3ccc(NC(=O)c4ccccc4Cl)cc3)c3ccccc32)CC1 (centres unmarked) [compound 205]	74
CN1CCN(C2CCCN(C(=O)c3ccc(NC(=O)c4ccccc4Cl)cc3)c3ccccc32)CC1 (centres unmarked) [compound 206]	88
CN(C)C1c2ccccc2N(C(=O)c2ccc(NC(=O)c3ccccc3Cl)cc2)CCC1O (centres unmarked) [compound 216]	910
Cc1ccccc1C(=O)Nc1ccc(C(=O)N2CC=Cc3ccccc32)cc1 [compound 217]	370
CCN(CC(=O)Nc1ccc(C(=O)N2CCCC(NC)c3ccccc32)c(Cl)c1)c1ccccc1 (centres unmarked) [compound 221]	24
CNC1c2ccccc2N(C(=O)c2ccc(NC(=O)c3ccccc3Cl)cc2Cl)CCC1O (centres unmarked) [compound 224]	380
Cc1ccccc1C(=O)Nc1ccc(C(=O)N2CCCC(O)(CO)c3ccccc32)c(Cl)c1 (centres unmarked) [compound 225]	30
COC1(OC)CCN(C(=O)c2ccc(NC(=O)c3ccccc3C)cc2)c2ccccc2C1 [compound 233]	150
CC(=O)ON=C1CCCN(C(=O)c2ccc(NC(=O)c3ccccc3Cl)cc2)c2ccccc21 [compound 234]	140
Cc1ccccc1C(=O)Nc1ccc(C(=O)N2CCCC(O)(CO)c3ccccc32)cc1 (centres unmarked) [compound 237]	41
CN1CC(=O)OC2CCN(C(=O)c3ccc(NC(=O)c4ccccc4Cl)cc3)c3ccccc3C21 (centres unmarked) [compound 251]	94
NC1CCCN(C(=O)c2ccc(NC(=O)c3ccccc3Cl)cc2)c2ccccc21 (centres unmarked) [compound 253]	52
O=C(Nc1ccc(C(=O)N2CCCC(NCCc3ccccn3)c3ccccc32)cc1)c1ccccc1Cl (centres unmarked) [compound 257]	45
CCOC(=O)NC1CCCN(C(=O)c2ccc(NC(=O)c3ccccc3C)cc2)c2ccccc21 (centres unmarked) [compound 260]	130
Cc1ccccc1C(=O)Nc1ccc(C(=O)N2CCCC(C)(O)c3ccccc32)cc1 (centres unmarked) [compound 261]	11
Cc1ccccc1C(=O)Nc1ccc(C(=O)N2CCCC(NC3CCCC3)c3ccccc32)c(Cl)c1 (centres unmarked) [compound 263]	53
Cc1ccccc1C(=O)Nc1ccc(C(=O)N2CCCC(N(C)CCCOC3CCCCO3)c3ccccc32)cc1 (centres unmarked) [compound 267]	120
